For one test, the target named is T1, PDIA3 (Homo sapiens, UniProt P30101).
T1 sequence (P30101 25-505): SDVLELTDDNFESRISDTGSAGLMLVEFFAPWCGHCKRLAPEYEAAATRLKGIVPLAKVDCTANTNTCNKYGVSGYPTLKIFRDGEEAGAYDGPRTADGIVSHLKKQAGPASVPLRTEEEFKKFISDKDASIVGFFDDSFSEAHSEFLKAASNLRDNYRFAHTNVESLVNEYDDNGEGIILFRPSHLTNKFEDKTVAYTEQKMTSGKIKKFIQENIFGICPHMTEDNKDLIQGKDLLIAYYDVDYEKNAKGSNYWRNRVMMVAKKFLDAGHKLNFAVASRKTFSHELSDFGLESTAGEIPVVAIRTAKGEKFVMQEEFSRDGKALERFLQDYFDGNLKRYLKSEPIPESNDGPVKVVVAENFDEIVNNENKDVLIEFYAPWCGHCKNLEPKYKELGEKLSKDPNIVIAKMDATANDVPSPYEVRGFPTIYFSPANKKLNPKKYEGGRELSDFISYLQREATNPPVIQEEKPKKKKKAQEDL
In words: CETSA and pull-down assay with probe SB1624. The arrangement: endogenous in cells; host or cells: HEK293 BiFC-tau cells (TS-FITGE, CETSA, PEG-maleimide assay); SH-SY5Y cells (pull-down with probe SB1624). The test is classed as binding. Conditions: CETSA 10 μM in HEK293 BiFC-tau cells; pull-down 5 μM SB1624 with or without 40 μM SB1617 in SH-SY5Y cells. As to the method: HEK293 BiFC-tau cells were treated with DMSO (0.1%) and a compound according to the present invention (10 μM) in the presence of thapsigargin (200 nM) for 3 hours. The cell suspension was heated at the indicated temperature range for 3 minutes and then at 25° C. for 3 minutes. The heated cells were washed with PBS and resuspended in Lysis Buffer A. For cell lysis, cell suspensions were freeze-thawed in liquid nitrogen three times. The cell lysate was washed by centrifugation at 20000 g, 4° C. for 20 minutes. Equal volumes of washed cell lysate were combined with SDS buffer and subjected to immunoblotting.
SH-SY5Y cells were seeded in 6-well plates and then treated with 1 μM thapsigargin and 5 μM SB1624 (probe compound) for 2.5 hours with or without 40 μM SB1617. Cells were exposed to 356 nm UV irradiation for 30 min on ice. After washing with cold PBS, cells were lysed in RIPA buffer and removed by centrifugation at […] for 15 minutes at 4° C. The protein concentration of the supernatant was determined by Pierce BCA Protein Assay Kit and the protein concentration was adjusted to 1 mg/mL. […] Proteins were eluted by boiling with 3×SDS sample buffer and analyzed by SDS-PAGE and Western blot. […]

Test [1] concerns LC3-1 to LC3-II conversion (autophagy). In words: Immunoblot of LC3-1 to LC3-II conversion and p62 in HEK293 BiFC-tau cells. The format is cell-based, human. Conditions: 5 μM SB1617, presence or absence of 500 nM TG, 6 hours. (In general: A western blot detects proteins with antibodies after separation by electrophoresis.)
Test [2] has as its target T2, PDIA3 (PDI reductase activity) (Homo sapiens, UniProt P30101).
T2 construct: endogenous in cells; host or cells: HEK293 BiFC-tau cells (TS-FITGE, CETSA, PEG-maleimide assay)
T2 sequence (P30101 25-505): T1 sequence (P30101 25-505)
The test is described as follows: PEG maleimide modification assay of PDI oxidation state. The format is cell-based. Conditions: BiFC-tau HEK293 cells, 200 nM TG and 40 μM SB1617 for 3.5 hours, versus thapsigargin alone. As to the method:
Cysteine modification analysis using PEG maleimide was performed according to the paper (P. Kranz, F. Neumann, A. Wolf, F. Classen, M. Pompsch, T. Ocklenburg, J. Baumann, K. Janke, M. Baumann, K. Goepelt, H. Riffkin, E. Metzen, U. Brockmeier, PDI is an essential redox-sensitive activator of PERK during the unfolded protein response (UPR). Cell Death Dis. 8, e2986 (2017)).
After compound treatment, BiFC-tau HEK293 cells were washed with cold PBS, incubated with 20 mM N-ethylmaleimide (NEM, Sigma Aldrich) in PBS for 20 minutes on ice to alkylate the reduced form of cysteine, and after washing with cold PBS, the cells were lysed in RIPA buffer. For whole cell analysis, the lysate was centrifuged at 200 g for 5 min at 4° C. to remove insoluble material. Protein concentration in the supernatant was analyzed by Pierce BCA Protein Assay Kit. Equal amounts of each lysate were treated with 12 mM tris(2-carboxyethyl)phosphine (TCEP, Sigma Aldrich) for 20 minutes at room temperature to reduce the form of oxidized PDI. Lysates were incubated with 15 mM methoxy polyethylene glycol 5000 maleimide (mPEG-mal5000, Sigma Aldrich) for 1 hour at room temperature. […]
3-2. […] Maleimides with two different molecular weights allow the bands of oxidized and reduced forms of PDI to be readily separated by electrophoresis.

Test [3] relates to acute Alzheimer's mouse model. In words: Acute Alzheimer's mouse model (acquisition and probe test). The format is in vivo. As to the method: 7-1. Potential therapeutic effect of SB1617 in an acute Alzheimer's mouse model was identified, and the design for the experiment is schematically shown in FIG. 40
7-3. As a result of confirming the treatment efficacy through a probe test, after removing the platform, it was performed by recording how many times the mouse passed the position where the platform was […]

SMILES strings stand for the structures.

In the case of `CN(Cc1ccc(Cl)cc1)c1ncnc2c1[C@@H]1OC[C@H](CN2)N1S(=O)(=O)c1ccc([N+](=O)[O-])cc1` [Compound 117], on PDIA3, the “specific binding (CETSA, pull-down)” value is given as “specifically binds”. Moreover, in test [1], the “conversion from LC3-1 to LC3-II” value is given as “conversion from light chain 3-1 (LC3-1) to LC3-II was confirmed”. Besides, the “oxidation state of PDI” value in test [2] was “significantly converted from the reduced form to the oxidized form”. The “learning ability (Acquisition test), rank order” value in test [3] (acute Alzheimer's mouse model) is given as “WT >Donepezil >SB-1617>Vehicle”. Moreover, in test [3] (compared to the vehicle), the “probe test, number of times of entering the SW quadrant space” value was “significantly higher value”; the “probe test, number of times passing the virtual platform” value was “significantly higher value”; the “probe test, time to reach the platform” value was “significantly lower value”. For the same compound, the “probe test, percentage (%) of the time spent in the quadrant where the platform exists” value in test [3] (mouse, in vivo) is “remembered the location of the platform well”.

Source of the values: patent US20230322805A1, “NOVEL PYRIMIDODIAZEPINE DERIVATIVES OR USES THEREOF” (SPARK BIOPHARMA, INC., priority 2020, published 2023).
